Converted amounts (≈) assume the structure as drawn. Marks after values point to notes of the source that are not given here.
Assays:
[1] = tested on: NCI-H460 (non-small cell lung carcinoma cell); test: MTT antiproliferative assay (cell growth %, GI50), NCI-H460; format: cell-based; details: Homo sapiens, NCI-H460, 48 hours, MTT; for activity at 4000 µg/mL: 4 mg/ml; for activity at 20000 µg/mL: 20 mg/ml
Procedure: (§1) Antiproliferative activities of the compounds of this invention were evaluated substantially according to the method as described in Tseng, C. […] The cells were treated with the test compounds, i.e., the compounds of this invention (in dimethylsulfoxide (DMSO)), or DMSO for 48 hours.
(§2) Before and after the treatment with the test compounds or DMSO, 3-(4,5-dimethylthiazol-2-yl)-2,5-diphenyltetrazolium bromide (MTT, 2 mg/mL, 100 μL) was added to each of the cultures, followed by cultivation for 2 hours. The resultant formazan was dissolved by the addition of DMSO. Absorbance at 570 nm (OD570) was measured using a microtiter plate reader (Dynex MRX-II).
(§3) Determination of GI50 was conducted thrice for each test compound. GI50 is expressed as mean±SD.

[2] = in vitro anticancer assay, earlier work of the applicants; cited from earlier work
[3] = Determination of solubility in water; format: physicochemical; details: water, 25 °C, thermodynamic from solid; 25±0.1° C., stirred overnight, UV-VIS
Procedure: Determination of solubility in water was conducted substantially according to the method as described in Vougogiannopoulou, K. et al. (2008), J. Med. Chem., 51:6421-6431. An excess amount of the respective test compound was added into water, followed by sonication for 5 minutes. The resultant mixture was stirred at ambient temperature (25±0.1° C.) overnight. Centrifugation at 4000 rpm and 25° C. was conducted for 5 minutes. Absorbance of the sample of the respective test compound was measured at 315-420 nm using a UV-VIS spectrophotometer (JASCO UV-Visible V570). For each test compound, a standard curve was generated by plotting concentrations of standard solutions and the corresponding absorbances. The absorbance of the sample of each test compound was then converted to solubility in water (μg/mL) using the corresponding standard curve.

[4] = tested on: MCF-7 (breast cancer cell); test: MTT antiproliferative assay (cell growth %, GI50), MCF-7; format: cell-based; details: Homo sapiens, MCF7, 48 hours, MTT; for activity at 4000 µg/mL: 4 mg/ml; for activity at 20000 µg/mL: 20 mg/ml
Procedure: as §1, §2, §3

[5] = Single-dose pharmacokinetic analysis in CD-1 mice; format: in vivo
Procedure: CD-1 mice were divided into two groups. The first group of mice (n=9) were used to assess the singe-dose pharmacokinetics of the test compounds after intravenous administration, and the second group of mice (n=9) were utilized to assess the singe-dose pharmacokinetics of the test compounds after oral administration. All of the mice were fasted from 4 hours before the administration of the test compounds until 4 hours after the administration of the test compounds.
The assessment for singe-dose pharmacokinetics of the test compounds after intravenous administration was performed as follows. The first group of mice were further randomly divided into three subgroups including compound 13a group (n=3), compound 14a group (n=3), and compound 1 group (n=3). Compounds 13a, 14a, 1 (in polyethylene glycol 400/ethanol/water (30/5/65, v/v/v)) were respectively administered to the mice in compound 13a group, compound 14a group, and compound 1 group at a dose of 2 mg/kg via tail vein injection. Blood samples (0.25 mL) were collected from the mice by virtue of cardiac puncture right before the intravenous administration, and at 2 min, 5 min, 15 min, 30 min, 1 hr, 1.5 hr, 2 hr, 4 hr, 6 hr, 9 hr, 24 hr, and 27 hr after the intravenous administration.
The assessment for singe-dose pharmacokinetics of the test compounds after oral administration was conducted as follows. The second group of mice were further randomly divided into three subgroups including compound 13a group (n=3), compound 14a group (n=3), and compound 1 group (n=3). Compounds 13a, 14a, 1 (in 0.5% methylcellulose) were respectively administered to the mice in compound 13a group, compound 14a group, and compound 1 group at a dose of 20 mg/kg via tube feeding. Blood samples (0.25 mL) were collected from the mice by virtue of cardiac puncture right before the oral administration, and at 15 min, 30 min, 1 hr, 1.5 hr, 2 hr, 4 hr, 6 hr, 9 hr, 24 hr, and 27 hr after the oral administration.
Each of the blood samples was placed in a 0.5 mL Microtainer® tube containing anticoagulant EDTA-K2, followed by mixing evenly. Centrifugation at 7000 g and 4° C. was conducted for 5 minutes. Plasma was collected and was mixed uniformly with a proper amount of acetonitrile, followed by centrifugation. The resultant supernatant was acquired, and was injected into a reversed-phase Biosil ODS column so as to determine the concentration of the respective test compound in plasma (i.e., the plasma concentration of the respective test compound) using a LC-MS/MS system (Waters 2795 LC and Micromass Quattro Ultima). The singe-dose pharmacokinetic parameters of the respective test compound were calculated from the obtained concentration of the respective test compound in plasma (i.e., the obtained plasma concentration of the respective compound) at different time points using WinNonlin Standard Program (version 3.1, Pharsight Corp.)

tubulin = details: Huang Y. T. et al. (2005); cited from earlier work
[6] = intravenous administration, 2 mg/kg

Row | solubility [3] | Compound | activity at 4000 µg/mL [1] | activity at 20000 µg/mL [1] | Antiproliferative potency compared with amsacrine (m-AMSA) [2] | activity at 4000 µg/mL [4] | activity at 20000 µg/mL [4] | further results
1 | 8 µg/mL (≈ 24.1 µM) | CO/N=C(\C)c1ccc(Nc2c3ccccc3nc3occc23)cc1 [Compound 3, (E)-1-(4-(furo[2,3-b]quinolin-4-ylamino)phenyl)ethanone O-methyloxime, reference compound] | 51% | 23% | comparable to that of amsacrine | 63% | 37% | 
2 | 10 µg/mL (≈ 31.5 µM) | C/C(=N\O)c1ccc(Nc2c3ccccc3nc3occc23)cc1 [Compound 2, (E)-1-(4-(furo[2,3-b]quinolin-4-ylamino)phenyl)ethanone oxime, reference compound] | 27% | 21% | comparable to that of amsacrine | 64% | 58% | 
3 | 6 µg/mL (≈ 19.8 µM) | CC(=O)c1ccc(Nc2c3ccccc3nc3occc23)cc1 [Compound 1, 1-(4-(furo[2,3-b]quinolin-4-ylamino)phenyl)ethanone, reference compound] | 33% | 30% | higher than that of amsacrine | 69% | 61% | AUC(0-inf) [5, 6]: 211 ng·h/mL; CL [5, 6]: 158 mL/min/kg; MRT [5, 6]: 6 min; Time after which compound was unable to be detected in plasma [5, 6]: 1.5 h; Vss [5, 6]: 1.2 L/kg; Vz [5, 6]: 4.1 L/kg; Cmax ([5]; intravenous administration, 2 mg/kg, extrapolated plasma concentration at 0 hr): 3064 ng/mL; t1/2 ([5]; intravenous administration, 2 mg/kg, from 0.5-1.5 hr (compd. 1) or 9-27 hr (13a, 14a)): 0.3^b hr; Bioavailability ([5]; oral 20 mg/kg versus intravenous 2 mg/kg): 2.1%; AUC(0-inf) ([5]; oral administration, 20 mg/kg): 45 ng·h/mL; Cmax ([5]; oral administration, 20 mg/kg): 21 ng/mL; MRT ([5]; oral administration, 20 mg/kg): 162 min; Time after which compound was unable to be detected in plasma ([5]; oral administration, 20 mg/kg): 6 h; Tmax ([5]; oral administration, 20 mg/kg): 18 min; t1/2 ([5]; oral administration, 20 mg/kg, from 2-6 hr (compd. 1), 2-24 hr (13a), 2-9 hr (14a)): 2.0^c hr; Effect on tubulin (tubulin): binding to tubulin and inhibiting tubulin polymerization
